Assay results: patent publication US20220315895A1, “METHODS OF MAKING OLIGOPOTENT AND UNIPOTENT PRECURSORS” (Transfusion Health, LLC, priority 2019, published 2022)

Columns and labels:
[1] = test system: expanded cord blood CD34+ cells, granulocyte precursor populations; assay: Granulocyte Differentiation Culture, precursor phenotyping (Example 39); assay type: cell-based, human
Excerpt: The remaining cells from duplicate flasks were pooled, and CD34+ cells were re-enriched using the CD34 MicroBead Kit—UltraPure (Miltenyi Biotec). CD34 purity was verified by flow cytometry. Enriched CD34+ cells were then placed into Granulocyte Differentiation Culture, described below.
Granulocyte Differentiation Cultures were initiated prior to culture in Compound 1.010 (Unexpanded Granulocyte Differentiation Culture), following 21 days of culture in Compound 1.010 (+Formula I-expanded Differentiation Culture), or following 21 days of culture in Control condition (Control-expanded Differentiation Culture). Purified CD34+ cells were plated at 1000 cells per well in a 48-well plate, in granulocyte differentiation medium, made by combining StemSpan SFEM and StemSpan 100X Myeloid Expansion Supplement (formulated for differentiation of granulocytes) containing SCF, TPO, G-CSF, and GM-CSF (STEMCELL). Cells were plated in 300 μl/well. Unexpanded cells were plated in triplicate; Formula I and Control-expanded cells were plated in quadruplicate. Plates were then placed in a humidified incubator at atmospheric oxygen and 5% CO2. Exact cell numbers dispensed per well were quantified with flow cytometry for later calculations.
On days 7, and 10, additional differentiation medium was prepared and cells were passaged to fresh wells.
On days 7 and 13 of Granulocyte Differentiation Culture, a portion of the culture was removed for analysis and quantification of granulocyte differentiation via flow cytometry. Cells were stained with antibodies to CD16, CD15, CD14, CD13, CD11b, and CD34. Cells were gated into granulocyte precursor populations of promyelocyte (CD34−/CD14−/CD15+/CD16-/CD13high/CD11b−), myelocyte (CD34−/CD14−/CD15+/CD16−/CD13dim/CD11b+) and “metamyelocyte+” (CD34−/CD14−/CD15+/CD11b+/CD13+/CD16+). Promyelocyte is the least mature subset, myelocytes are at an intermediate level of maturity, and “metamyelocyte+” encompasses cells at the highest levels of granulocyte maturation, including metamyelocytes and mature neutrophils. Fractional representation and total numbers of granulocyte precursor subsets were calculated. Cell numbers calculated at day 13 account for passaging.

[2] = test system: CD34+ cells from mobilized peripheral blood; assay: Long-term expansion of HSCs, mobilized peripheral blood (Example 36); assay type: cell-based, human; conditions: Compound 1.010 8 μM, up to 21 days, from day 1
Description: CD34+ cells from mobilized peripheral blood were purchased from STEMCELL Technologies. The blood from volunteer donors was mobilized using G-CSF. Volunteers were administered a maximum of 10 μg/kg/day of granulocyte colony-stimulating factor (G-CSF) for 3-5 days prior to collection. Primary human CD34+ cells were isolated from mobilized peripheral blood leukapheresis samples using positive immunomagnetic separation techniques.
Cryopreserved CD34+ cell samples from each source were thawed and gradually brought to room temperature. Samples were washed then placed in overnight culture in StemSpan with 100 ng/ml each of FLT3L, TPO, SCF, and TL-6.
Cultures were incubated at 3% oxygen (controlled by nitrogen) and 5% CO2.
Twenty-four hours later (day 1), cells were counted and immunophenotyped (flow cytometry on an Invitrogen Attune N×T cytometer). The media components and concentrations used for the compounds tested are described in Table 7. Culture conditions also included an antibiotic solution that includes penicillin, streptomycin, and amphotericin B to avoid contamination. Approximately 1000 cells were added to each of the cord blood and mobilized peripheral blood flasks (5 ml total volume) or wells of a 96-well plate (200 μl total volume). Approximately 2000 cells were added to each of the non-mobilized peripheral blood flasks (5 ml total volume) or wells of a 96-well plate (200 μl total volume). Exact cell numbers dispensed per condition were quantified for later calculations of fold change from day 1.
Wells were analyzed at days 7 and 10, flasks were analyzed at 14 and 21 days of incubation. Cell numbers and phenotypes were quantified with flow cytometry. At day 14, fresh conditions for flasks were prepared as on day 1, and cells were split 1:20 into the new flasks. An additional seven days later (day 21 of culture), cell numbers and phenotypes were again quantified with flow cytometry. Cell numbers calculated at day 21 account for the passaging of the cells.
Conditions in 96-well plates were prepared in quadruplicate; conditions in flasks were prepared in duplicate. On the above-indicated number of days in culture, cells from wells or flasks were collected and phenotypes were analyzed (flow cytometry on an Invitrogen Attune N×T cytometer).

[3] = +Formula I Conditions, 13 days in Granulocyte Differentiation Culture, N 4
[4] = Formula I-expanded (21 days), seven days Granulocyte Differentiation Culture

CC(C)(C)C(=O)Nc1ccc2c(c1)C(O)c1ccccc1-2 (centres unmarked) [Compound 1.010]
Metamyelocyte+, Mean % of CD15+ cells [1, 3]: 35.2% | Myelocyte, Mean % of CD15+ cells [1, 3]: 36.8% | Promyelocyte, Mean % of CD15+ cells [1, 3]: 28% | cells remaining undifferentiated, without expression of CD15 [1, 4]: 20% | cells still expressing CD34 [1, 4]: 1.9% | cells with high CD16 indicative of full differentiation to neutrophils [1, 4]: No cells were detected with high CD16 | metamyelocytes (CD34−/CD14−/CD15+/CD13+/CD11b+/CD16+), of cultured cells [1, 4]: 8% | myelocytes (CD34−/CD14−/CD15+/CD13low/CD11b+/CD16−), of cultured cells [1, 4]: 15% | promyelocytes (CD34−/CD14−/CD15+/CD13+/CD11b−/CD16−), of cultured cells [1, 4]: 55% | fold expansion of CD34+ cells [2]: greater than 20 fold | fold expansion of CD34+/CD133+ cells [2]: greater than 40 fold | fold expansion of CD34+/CD133+/CD90+ cells [2]: greater than 60 fold | fold expansion of CD34+/CD133+/CD90+/CD38low/− cells [2]: greater than 60 fold | fold expansion of CD34+/CD133+/CD90+/CD45RA− cells [2]: greater than 30 fold
